{
  "source": "patent US5324502A",
  "about": "“Radiopharmaceuticals for imaging the heart” (priority 1992, dated 1994)",
  "key": {"[1]": {"conditions": "rat, i.v.", "method": "The gallium-67 complexes are prepared by ligand exchange from gallium-67 chloride, employing the tris(acetylacetonato)gallium(III) complex as an intermediate. The Ga-67 acetylacetonate in ethanol is reacted with the chelating ligand or ligand precursor at elevated temperature to form rapidly the desired gallium radiopharmaceutical. […] The biodistribution of several radiopharmaceuticals was determined in rats following intravenous injection using techniques previously described (M. A. Green, Nuclear Medicine and Biology 14:59-61, 1987; E. John and M. A. Green, J. Medicinal Chemistry, 33:1764-1770, 1990).\nUnder ether anesthesia, 1 to 3 μCi (0.1-0.2 mL) of no-carrier-added Ga-67 compound was administered by bolus injection into the femoral vein of male Sprague-Dawley rats. The ether anesthetized rats were sacrificed by decapitation at given time intervals post-injection, organs of interest were removed, weighed, and the gallium-67 activity counted. The biodistribution was calculated as a percentage of the injected dose per gram of tissue and percentage of injected dose per organ for each sample."}, "[2]": {"test": "Octanol/water partition coefficient of radiolabeled gallium complexes", "assay_type": "physicochemical", "conditions": "octanol/tris buffer, pH 7", "method": "Octanol/water partition coefficients were measured by vortex mixing 1 mL of 1-octanol and 1 mL of isotonic Tris buffer (pH 7.0) with a 1-5 μL sample of the radiolabeled gallium complex. Following centrifugation at >1200 g for 5 minutes, the octanol and aqueous phases were sampled and counted in an automatic well counter."}},
  "note": "Where two headings read alike, the source gives them in different places.",
  "data": [
    {"smiles": "COc1cc([O-])c(C=NCCCNCCNCCCN=Cc2c([O-])cc(OC)cc2OC)c(OC)c1.[67Ga+3]", "note": "[(4,6-MeO2 Sal)2 BAPEN]", "values": [
      {"measurement": "% Injected Dose per Gram Tissue, Blood", "setting": "[1]; 1 min", "value": "0.66 ± 0.14 % Injected Dose per Gram Tissu"},
      {"measurement": "% Injected Dose per Gram Tissue, Brain", "setting": "[1]; 1 min", "value": "0.03 ± 0.01 % Injected Dose per Gram Tissu"},
      {"measurement": "% Injected Dose per Gram Tissue, Heart", "setting": "[1]; 1 min", "value": "1.52 ± 0.24 % Injected Dose per Gram Tissu"},
      {"measurement": "% Injected Dose per Gram Tissue, Kidney (one)", "setting": "[1]; 1 min", "value": "6.40 ± 0.92 % Injected Dose per Gram Tissu"},
      {"measurement": "% Injected Dose per Gram Tissue, Liver", "setting": "[1]; 1 min", "value": "4.72 ± 0.82 % Injected Dose per Gram Tissu"},
      {"measurement": "% Injected Dose per Gram Tissue, Lungs", "setting": "[1]; 1 min", "value": "0.81 ± 0.16 % Injected Dose per Gram Tissu"},
      {"measurement": "% Injected Dose per Gram Tissue, Spleen", "setting": "[1]; 1 min", "value": "0.61 ± 0.09 % Injected Dose per Gram Tissu"},
      {"measurement": "% injected dose in heart, 1 min", "setting": "[1]; 1 min, preliminary studies", "value": "1.04 ± 0.12", "unit": "% injected dose"},
      {"measurement": "% Injected Dose Per Gram of Tissue, Blood", "setting": "[1]; 5 min", "value": "0.11 ± 0.01 % Injected Dose Per Gram of Tissue"},
      {"measurement": "% Injected Dose Per Gram of Tissue, Brain", "setting": "[1]; 5 min", "value": "0.01 ± 0.00 % Injected Dose Per Gram of Tissue"},
      {"measurement": "% Injected Dose Per Gram of Tissue, Heart", "setting": "[1]; 5 min", "value": "1.45 ± 0.20 % Injected Dose Per Gram of Tissue"},
      {"measurement": "% Injected Dose Per Gram of Tissue, Kidney (1)", "setting": "[1]; 5 min", "value": "6.10 ± 0.53 % Injected Dose Per Gram of Tissue"},
      {"measurement": "% Injected Dose Per Gram of Tissue, Liver", "setting": "[1]; 5 min", "value": "4.32 ± 0.53 % Injected Dose Per Gram of Tissue"},
      {"measurement": "% Injected Dose Per Gram of Tissue, Lungs", "setting": "[1]; 5 min", "value": "0.55 ± 0.05 % Injected Dose Per Gram of Tissue"},
      {"measurement": "% Injected Dose Per Gram of Tissue, Spleen", "setting": "[1]; 5 min", "value": "0.52 ± 0.15 % Injected Dose Per Gram of Tissue"},
      {"measurement": "% Injected Dose per Gram Tissue, Blood", "setting": "[1]; 15 min", "value": "0.07 ± 0.01 % Injected Dose per Gram Tissu"},
      {"measurement": "% Injected Dose per Gram Tissue, Brain", "setting": "[1]; 15 min", "value": "0.01 ± 0.00 % Injected Dose per Gram Tissu"},
      {"measurement": "% Injected Dose per Gram Tissue, Heart", "setting": "[1]; 15 min", "value": "1.22 ± 0.12 % Injected Dose per Gram Tissu"},
      {"measurement": "% Injected Dose per Gram Tissue, Kidney (one)", "setting": "[1]; 15 min", "value": "4.22 ± 0.30 % Injected Dose per Gram Tissu"},
      {"measurement": "% Injected Dose per Gram Tissue, Liver", "setting": "[1]; 15 min", "value": "2.19 ± 0.21 % Injected Dose per Gram Tissu"},
      {"measurement": "% Injected Dose per Gram Tissue, Lungs", "setting": "[1]; 15 min", "value": "0.42 ± 0.06 % Injected Dose per Gram Tissu"},
      {"measurement": "% Injected Dose per Gram Tissue, Spleen", "setting": "[1]; 15 min", "value": "0.43 ± 0.06 % Injected Dose per Gram Tissu"},
      {"measurement": "% Injected Dose per Gram Tissue, Blood", "setting": "[1]; 120 min", "value": "0.03 ± 0.00 % Injected Dose per Gram Tissu"},
      {"measurement": "% Injected Dose per Gram Tissue, Brain", "setting": "[1]; 120 min", "value": "0.01 ± 0.00 % Injected Dose per Gram Tissu"},
      {"measurement": "% Injected Dose per Gram Tissue, Heart", "setting": "[1]; 120 min", "value": "1.37 ± 0.12 % Injected Dose per Gram Tissu"},
      {"measurement": "% Injected Dose per Gram Tissue, Kidney (one)", "setting": "[1]; 120 min", "value": "2.77 ± 0.24 % Injected Dose per Gram Tissu"},
      {"measurement": "% Injected Dose per Gram Tissue, Liver", "setting": "[1]; 120 min", "value": "0.33 ± 0.01 % Injected Dose per Gram Tissu"},
      {"measurement": "% Injected Dose per Gram Tissue, Lungs", "setting": "[1]; 120 min", "value": "0.45 ± 0.11 % Injected Dose per Gram Tissu"},
      {"measurement": "% Injected Dose per Gram Tissue, Spleen", "setting": "[1]; 120 min", "value": "0.37 ± 0.06 % Injected Dose per Gram Tissu"},
      {"measurement": "% injected dose in heart, 2 h", "setting": "[1]; 2 h, preliminary studies", "value": "0.86 ± 0.11", "unit": "% injected dose"},
      {"measurement": "Heart/Blood", "setting": "[1]; ratio, 1 min", "value": "2.34 ± 0.36"},
      {"measurement": "Heart/Liver", "setting": "[1]; ratio, 1 min", "value": "0.32 ± 0.03"},
      {"measurement": "Heart/Lungs", "setting": "[1]; ratio, 1 min", "value": "1.88 ± 0.18"},
      {"measurement": "Heart/Blood", "setting": "[1]; ratio, 5 min", "value": "13.28 ± 2.19"},
      {"measurement": "Heart/Liver", "setting": "[1]; ratio, 5 min", "value": "0.34 ± 0.04"},
      {"measurement": "Heart/Lung", "setting": "[1]; ratio, 5 min", "value": "2.64 ± 0.34"},
      {"measurement": "Heart/Blood", "setting": "[1]; ratio, 15 min", "value": "18.10 ± 0.91"},
      {"measurement": "Heart/Liver", "setting": "[1]; ratio, 15 min", "value": "0.56 ± 0.10"},
      {"measurement": "Heart/Lungs", "setting": "[1]; ratio, 15 min", "value": "2.98 ± 0.53"},
      {"measurement": "Heart/Blood", "setting": "[1]; ratio, 120 min", "value": "45.58 ± 3.96"},
      {"measurement": "Heart/Liver", "setting": "[1]; ratio, 120 min", "value": "4.12 ± 0.44"},
      {"measurement": "Heart/Lungs", "setting": "[1]; ratio, 120 min", "value": "3.27 ± 1.32"},
      {"measurement": "log P", "setting": "[2]", "value": 1.68}
    ]}
  ]
}
